From ChEMBL document CHEMBL5346901, “Discovery of potent Plasmodium falciparum protein kinase 6 (PfPK6) inhibitors with a type II inhibitor pharmacophore” (Eur J Med Chem, 2023) come the findings set out here.

SMILES strings stand for the structures. Active and inactive are the calls of the source. The rule behind the calls is not given here.

The first test deals with T1, Cdk-related protein kinase 6 (Plasmodium falciparum) (UniProt O77239).
T1 sequence (whole entry): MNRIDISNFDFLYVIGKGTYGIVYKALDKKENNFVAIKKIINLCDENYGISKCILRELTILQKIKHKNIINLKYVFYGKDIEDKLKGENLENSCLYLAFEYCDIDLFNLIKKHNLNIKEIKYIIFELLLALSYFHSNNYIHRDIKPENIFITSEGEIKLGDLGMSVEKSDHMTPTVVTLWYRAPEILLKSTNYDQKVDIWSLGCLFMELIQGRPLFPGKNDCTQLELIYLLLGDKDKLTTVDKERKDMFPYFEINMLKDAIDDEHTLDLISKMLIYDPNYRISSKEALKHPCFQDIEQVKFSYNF
The experiment in a line: Inhibition of plasmodium falciparum PK6 assessed as remaining activity at 1 uM incubated for 2 hrs by luciferin-based luminescence assay relative to control.
Details: not given
For `O=C(Nc1ccc(F)cc1F)Nc1ccc(Oc2ccnc3[nH]ccc23)cc1F`, the Activity was found to be 14%. Same read-out and setting: the value for `COc1cc2nccc(Oc3ccc(NC(=O)Nc4ccc(F)cc4F)cc3)c2cc1OC` was 6%. For the compound `COc1cc2nccc(Oc3ccc(NC(=O)Nc4ccccc4)cc3)c2cc1OC`, the Activity is 4%. On the same count and under the same terms, as for `COc1ccc(NC(=O)Nc2ccc(F)cc2F)c(F)c1`, the figure is 100%; as for `COc1cc2nccc(Oc3ccc(NC(=O)Nc4ccc(F)cc4)c(F)c3)c2cc1OC`, 1%; as for `COc1cc2ncnc(Oc3ccc(NC(=O)Nc4ccc(F)cc4F)c(F)c3)c2cc1OC`, 6%. Still for that read-out and setting: the value for `COc1cc2nccc(Oc3ccc(N)c(F)c3)c2cc1OC` was 100%; that for `O=C(Nc1ccc(F)cc1F)Nc1ccc(Oc2ncnc3ccsc23)cc1F` was 61%; that for `O=C(Nc1ccc(F)cc1F)Nc1ccc(Oc2cc(Cl)ncn2)cc1F` was 96%. The same measure, in the same setting: the value for `O=C(Nc1ccc(F)cc1F)Nc1ccc(Oc2cc(NCc3ccccc3)ncn2)cc1F` was 60%. On to `O=C(Nc1ccc(F)cc1F)Nc1ccc(Oc2ccnc(Cl)c2)cc1F`, for which the Activity amounted to 92%.

In a further test the test system is Plasmodium falciparum. The experiment in a line: Antimalarial activity against blood stage Plasmodium falciparum 3D7 assessed as reduction in parasite growth incubated for 72 hrs by SYBR Green dye based fluorescence assay. The class given is functional, organism-based.
Details: not given
As to `COc1cccc(NC(=O)Nc2ccc(Oc3ccnc4cc(OC)c(OC)cc34)cc2F)c1`, the outcome was inactive. On the same count and under the same terms, the value for `COc1cc2nccc(Oc3ccc(NC(=O)Nc4cccc(CN5CCN(C)CC5)c4)c(F)c3)c2cc1OC` was “inactive”. Still for that read-out and setting: as for `COc1cc2nccc(Oc3ccc(NC(=O)Nc4cccc(Br)c4)c(F)c3)c2cc1OC`, the entry is “inactive”.

Take `COc1cc2nccc(Oc3ccc(NC(=O)Nc4cccc(C#N)c4)c(F)c3)c2cc1OC`: the result was inactive. Still for that read-out and setting: as for `COc1cc2nccc(Oc3ccc(NC(=O)Nc4ccc(CN5CCOCC5)cc4)c(F)c3)c2cc1OC`, the entry is “inactive”. The same measure, in the same setting: the value for `COc1cc2nccc(Oc3ccc(NC(=O)Nc4cc(C(F)(F)F)ccc4F)c(F)c3)c2cc1OC` was “inactive”. The same measure, in the same setting: the value for `COc1cc2nccc(Oc3ccc(NC(=O)Nc4cccc(OC(C)C)c4)c(F)c3)c2cc1OC` was “inactive”; that for `COc1cc2nccc(Oc3ccc(NC(=O)Nc4ccc(C(=O)N5CCN(C)CC5)c(C(F)(F)F)c4)c(F)c3)c2cc1OC` was “inactive”. Turning to `COc1cc2nccc(Oc3ccc(NC(=O)Nc4cccc(OC(F)F)c4)c(F)c3)c2cc1OC`, the result was inactive. Same read-out and setting: the value for `COc1cc2nccc(Oc3ccc(NC(=O)Nc4cccc(C(C)C)c4)c(F)c3)c2cc1OC` was “inactive”; that for `COc1cc2nccc(Oc3ccc(NC(=O)Nc4cccc(C(=O)N5CCN(C)CC5)c4)c(F)c3)c2cc1OC` was “inactive”. In the case of `COc1cc2nccc(Oc3ccc(NC(=O)Nc4cc(C(=O)N5CCN(C)CC5)cc(C(F)(F)F)c4)c(F)c3)c2cc1OC`, the result was inactive. Same read-out and setting: the value for `COc1cc2nccc(Oc3ccc(NC(=O)Nc4ccc(C(=O)N5CCN(C)CC5)cc4)c(F)c3)c2cc1OC` was “inactive”.

The same test, now with this note: 3D7, 72 h.
In general, EC50 refers to the midpoint of the concentration-response curve. Regarding `COc1cc2nccc(Oc3ccc(NC(=O)Nc4ccc(NC5CCN(C)CC5)cc4)c(F)c3)c2cc1OC`, the EC50 worked out at 660 nM.

As to `COc1cc2nccc(Oc3ccc(NC(=O)Nc4ccc(OC5CCN(C)CC5)c(OC(F)(F)F)c4)c(F)c3)c2cc1OC`, the EC50 came to 75 nM. Same read-out and setting: the value for `COc1cc2nccc(Oc3ccc(NC(=O)Nc4ccc(N5CCN(C)CC5)cc4)c(F)c3)c2cc1OC` was 630 nM; that for `COc1cc2nccc(Oc3ccc(NC(=O)Nc4ccc(CN5CCCC5)c(C(F)(F)F)c4)c(F)c3)c2cc1OC` was 330 nM; that for `COc1cc2nccc(Oc3ccc(NC(=O)Nc4cccc(C)c4)c(F)c3)c2cc1OC` was 3010 nM. For `COc1cc2nccc(Oc3ccc(NC(=O)Nc4ccc(N(C)C5CCN(C)CC5)cc4)c(F)c3)c2cc1OC`, the concentration giving a half-maximal response (EC50) was found to be 330 nM. Turning to `COc1cc2nccc(Oc3ccc(NC(=O)Nc4ccc(N(C)C5CCN(C)CC5)c(OC(F)(F)F)c4)c(F)c3)c2cc1OC`, the EC50 was determined as 250 nM.

Turning to `COc1cc2nccc(Oc3ccc(NC(=O)Nc4ccc(CN5CCCC5)cc4)c(F)c3)c2cc1OC`, the EC50 turned out to be 270 nM. The same measure, in the same setting: as for `Nc1ncnc2occ(-c3ccc(NC(=O)Nc4cc(C(F)(F)F)ccc4F)cc3)c12` [GW770249X], the figure is 500 nM; as for `COc1cc2nccc(Oc3ccc(NC(=O)Nc4cccc(OC(F)(F)F)c4)c(F)c3)c2cc1OC`, 800 nM. Still for that read-out and setting: the value for `COc1cc2nccc(Oc3ccc(NC(=O)Nc4cccc(C(F)(F)F)c4)c(F)c3)c2cc1OC` was 540 nM.

Turning to `COc1cc2nccc(Oc3ccc(NC(=O)Nc4ccc(CN5CCN(C)CC5)cc4)c(F)c3)c2cc1OC`, the 50% effective concentration (EC50) stood at 580 nM. Still for that read-out and setting: the value for `COc1cc2nccc(Oc3ccc(NC(=O)Nc4ccc(CN5CCCCC5)cc4)c(F)c3)c2cc1OC` was 250 nM; that for `C[C@H]1[C@@H](O)O[C@@H]2O[C@@]3(C)CC[C@H]4[C@H](C)CC[C@@H]1[C@@]24OO3` [ARTENIMOL] was 0.14 nM. The same measure, in the same setting: as for `COc1cc2nccc(Oc3ccc(NC(=O)Nc4ccc(C=C5CCNCC5)c(C(F)(F)F)c4)c(F)c3)c2cc1OC`, the figure is 83 nM; as for `COc1cc2nccc(Oc3ccc(NC(=O)Nc4ccc(CN5CCCCC5)c(C(F)(F)F)c4)c(F)c3)c2cc1OC`, 490 nM. Consider `CCN(CC)Cc1ccc(NC(=O)Nc2ccc(Oc3ccnc4cc(OC)c(OC)cc34)cc2F)cc1`, for which the EC50 was 320 nM. The same measure, in the same setting: as for `COc1cc2nccc(Oc3ccc(NC(=O)Nc4ccc(N(C)C5CCN(C)CC5)c(C(F)(F)F)c4)c(F)c3)c2cc1OC`, the figure is 150 nM; as for `CCN(CC)CCCC(C)Nc1c2ccc(Cl)cc2nc2ccc(OC)cc12` (stereo unspecified) [QUINACRINE], 33 nM. In the case of `COc1cc2nccc(Oc3ccc(NC(=O)Nc4cccc(C(C)(C)C)c4)c(F)c3)c2cc1OC`, the concentration giving a half-maximal response (EC50) was determined as 2520 nM.

As for `CCN(CC)Cc1ccc(NC(=O)Nc2ccc(Oc3ccnc4cc(OC)c(OC)cc34)cc2F)cc1C(F)(F)F`, the EC50 was found to be 300 nM.

On to `CCN(CC)Cc1ccc(NC(=O)Nc2ccc(Oc3ccnc4cc(OC)c(OC)cc34)cc2F)cc1OC(F)(F)F`, for which the EC50 was 270 nM.

In the case of `COc1cc2nccc(Oc3ccc(NC(=O)Nc4ccc(CN5CCCC5)c(OC(F)(F)F)c4)c(F)c3)c2cc1OC`, the EC50 stood at 230 nM.

As for `COc1cc2nccc(Oc3ccc(NC(=O)Nc4cccc(Cl)c4)c(F)c3)c2cc1OC`, the EC50 came to 2190 nM.

With `CCc1nc(N)nc(N)c1-c1ccc(Cl)cc1` [PYRIMETHAMINE], the concentration giving a half-maximal response (EC50) was 27 nM.

Regarding `COc1cc2nccc(Oc3ccc(NC(=O)Nc4ccc(OC5CCN(C)CC5)cc4)c(F)c3)c2cc1OC`, the 50% effective concentration (EC50) came to 330 nM. As to `COc1cc2nccc(Oc3ccc(NC(=O)Nc4cc(CN5CCN(C)CC5)cc(C(F)(F)F)c4)c(F)c3)c2cc1OC`, the EC50 is 410 nM. On to `CN1CCN(C(=O)c2cccc(NC(=O)Nc3ccc(N(C)c4ccnc(Nc5ccc(CS(C)(=O)=O)cc5)n4)cc3)c2)CC1`, for which the EC50 was 390 nM. Still for that read-out and setting: as for `COc1cc2nccc(Oc3ccc(NC(=O)Nc4ccc(CC5CCNCC5)c(OC(F)(F)F)c4)c(F)c3)c2cc1OC`, the figure is 82 nM. On the same count and under the same terms, the value for `COc1cc2nccc(Oc3ccc(NC(=O)Nc4ccc(C=C5CCNCC5)c(OC(F)(F)F)c4)c(F)c3)c2cc1OC` was 84 nM; that for `COc1cc2nccc(Oc3ccc(NC(=O)Nc4ccc(CN5CCCCC5)c(OC(F)(F)F)c4)c(F)c3)c2cc1OC` was 310 nM. Same read-out and setting: the value for `COc1cc2nccc(Oc3cc(C(=O)Nc4ccc(CN5CCN(C)CC5)c(C(F)(F)F)c4)ccc3C)c2cc1OC` was 410 nM.
